# Measurements: patent US20230312471A1 (priority 2020, published 2023)
# Read-outs that look alike come from different tables or passages of the source.
# How the values were obtained:
# Test in all cases: biochemical
# [1] = molecular target: 3CL^pro (Severe acute respiratory syndrome coronavirus 2, UniProt P0DTD1); type: binding, SARS-CoV-2
# [2] = molecular target: T1, PL^pro (Severe acute respiratory syndrome coronavirus 2, UniProt P0DTD1); type: biochemical, SARS-CoV-2
# [3] = molecular target: T1, PL^pro; type: binding, SARS-CoV-2
# [4] = read-out: IC50, inhibition of labelling of 3CL^pro by compound of formula (13)
compound,measurement,setting,value
O=C(/C=C/c1ccc(O)c2oc(-c3ccc(O)c(O)c3)cc12)O[C@H](Cc1ccc(O)c(O)c1)C(=O)O [salvianolic acid C],IC50,[1]; [4],91 µM
O=C(/C=C/c1ccc(O)c2c1[C@H](C(=O)O)[C@@H](c1ccc(O)c(O)c1)O2)O[C@H](Cc1ccc(O)c(O)c1)C(=O)O [lithospermic acid],IC50,[1],32 µM
O=C(/C=C/c1ccc(O)c(O)c1)O[C@H](Cc1ccc(O)c(O)c1)C(=O)O [rosmarinic acid],IC50,[1],10 µM
"S=C=NCCc1ccccc1 [Compound X05, Phenethyl isothiocyanate]",IC50,[2],44 µM
same,Inhibition of enzyme activity of PL^pro (in words),[2],inhibited enzyme activity
same,IC50,[1],43 µM
same,Inhibition of 3CL^pro labelling (in words),[1],incomplete inhibition
same,IC50,[3],81 µM
same,Inhibition of PL^pro labelling (in words),[3],incomplete inhibition
"O=C(/C=C/c1ccc(O)c2c1[C@H](C(=O)O[C@H](Cc1ccc(O)c(O)c1)C(=O)O)[C@@H](c1ccc(O)c(O)c1)O2)O[C@H](Cc1ccc(O)c(O)c1)C(=O)O [Compound M26, salvianolic acid B]",IC50,[1]; [4],12 µM
"COc1cc(/C=C/C(=O)CC(=O)/C=C/c2ccc(O)c(OC)c2)ccc1O [Compound M03, curcumin]",Inhibition of enzyme activity of PL^pro (in words),[2],inhibited enzyme activity
same,Inhibition of PL^pro labelling (in words),[3],almost completely inhibited
O=C(/C=C/c1ccc(O)c(O)c1/C=C/c1ccc(O)c(O)c1)O[C@H](Cc1ccc(O)c(O)c1)C(=O)O [salvianolic acid A],IC50,[1]; [4],4.8 µM
